Consider two molecules from paper PMC12067444, “Synthesis and Pharmacological Characterization of Novel Peripheral Cannabinoid-1 Receptor Blockers Based on a Tricyclic Scaffold” (Journal of Medicinal Chemistry, 2025).

Entries after “also recorded” stand apart in the source; their conditions may differ. Where two headings read alike, the source gives them in different places.

One data set deals with T1, CB1R (Mus musculus, UniProt P47746).
T1 construct: crude membranes from mouse brain; from tissue; host or cells: mouse brain cortex (without cerebellum) membranes, C57Bl/6Jhsd mice
T1 sequence (P47746 whole entry): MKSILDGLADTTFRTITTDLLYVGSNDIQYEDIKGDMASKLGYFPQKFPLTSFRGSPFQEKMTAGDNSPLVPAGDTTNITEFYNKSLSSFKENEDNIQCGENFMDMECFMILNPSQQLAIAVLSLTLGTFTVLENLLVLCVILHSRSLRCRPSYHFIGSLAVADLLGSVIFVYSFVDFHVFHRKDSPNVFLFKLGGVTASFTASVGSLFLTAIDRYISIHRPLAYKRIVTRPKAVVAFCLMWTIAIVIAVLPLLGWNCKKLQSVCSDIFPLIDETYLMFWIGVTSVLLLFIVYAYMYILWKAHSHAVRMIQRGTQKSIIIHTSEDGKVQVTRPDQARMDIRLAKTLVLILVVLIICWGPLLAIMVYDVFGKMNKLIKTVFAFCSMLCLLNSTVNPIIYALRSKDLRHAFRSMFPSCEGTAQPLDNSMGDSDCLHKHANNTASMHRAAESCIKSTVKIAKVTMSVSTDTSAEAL
Description: [35S]GTPγS binding - CB1R activity, mouse brain membranes. It is filed as biochemical. Particulars: CP-55,940 as reference agonist. The method, then:
Mouse brains were dissected, and P2 membranes were prepared and resuspended at ∼10 μg protein/μL in 350 μL assay buffer containing 0.14% BSA. Ligand-stimulated [^35S]GTPγS binding was assayed as described in the SI. […]
utilizing [3H] C P -55,940 as the radioligand and crude membranes from humans for CB1 R or CB2 R. T he compounds were tested at various concentrations (eight points with a five-fold serial dilution starting at two m M) , and their ability to displace [3H] CP - 55, 940 was evaluated. Upon completion of the binding assays, the reaction mixture was filtered through GF/C plates, followed by four washes with cold wash buffer. After drying for one hour, 50 μL of Perkin Elmer Microscint 20 cocktail was added to the filter plate wells, and the bound [3H] C P -55,940 radioligand was measured using a β counter. All data points were duplicated, and Ki values were determined from two independent experiments using GraphPad Prism 7.02 analysis software, extracted through nonlinear regression analysis.
Tissue preparation for [ 35 S]GTPγS binding. […]
mM EGTA, 9 mM MgCl 2, and 150 mM NaCl, followed by homogenization. The protein concentration of the suspension was determined using the BCA assay, and the suspen sion was diluted to a final concentration of 2 mg/mL in assay buffer. […]
Supplementary Figure 1. […] The tested compounds were evaluated for their ability to inhibit CB1R-mediate d […]

Data set [1] can be described thus: Tissue distribution after acute oral administration. The class given is in vivo, mouse. Particulars: for Kp at 1 h: male, C57Bl/6J, mouse, in vivo, 1 mg/kg PO, 1 h post-acute administration. The method, then: Male C57Bl/6J mice aged 7–9 weeks (3–4 mice per compound) were fasted overnight before administering each test compound. The compounds were accurately weighed and mixed with an appropriate vehicle to prepare a clear oral solution. The formulations were freshly prepared on the dosing day, and the mice were administered the compound via oral gavage within 4 h of formulation preparation. 1, 2, 4, and 8 h after compound administration, the mice were euthanized, and approximately 200 μL of blood was collected via cardiac puncture for plasma preparation. Brain and liver tissues were harvested and processed for analysis. Sample analysis was performed using LC-MS/MS, as described in detail in the SI. […]
calculated using the equation:
Lucif er yellow = VV bbbbbbbbbbbbbbbbbbbb ×RR FFFF bbbbbbbbbbbbbbbbbbbb ×100 […]
Measurements of BNS808 using LC-MS/MS. MS/MS analyses were conducted using a Sciex QTRAP® 6500+ mass spectrometer (Framingham, MA, USA). Air was […]
Infinity 1031 nitrogen generator (Peak Scientific, Inchinnan, Scotland). Purified air […]
generator to ensure a continuous and stable air supply.

Data set [2] is described as follows: Brain compound levels in the CNS side-effect study (Figure 2H). It is filed as in vivo. The note with it: male, C57Bl/6J, mouse, in vivo; BNS808 PO (1 or 10 mg/kg, dose not stated), 1 h after administration. The method, then: The ability of BNS808 and rimonabant (as a positive control) to induce centrally mediated hyperactivity in mice (A–C). Wild-type, male, C57Bl/6J mice received a single dose of rimonabant (10 mg/kg, PO), BNS808 (1 or 10 mg/kg, PO) or vehicle, and the Promethion High-Definition Behavioral Phenotyping System monitored the activity profile. In addition, the ability of BNS808 and rimonabant (as a positive control) to inhibit the hypomotility induced by a CB1R receptor agonist (HU210; 30 μg/kg, IP) was tested in wild-type, male, C57Bl/6J mice which received a single dose of rimonabant (10 mg/kg, PO) or BNS808 (1 or 10 mg/kg, PO) or vehicle (D–F). […] Data represent the mean ± SEM from 4 to 8 mice per group. *P < 0.05 vs Vehicle-treated control. ^#P < 0.05 vs rimonabant.

Data set [3] in a line: Tissue distribution after chronic oral administration in diet-induced obese mice. The class given is in vivo. The note with it: C57Bl/6J, mouse, brain; 1 mg/kg PO for 24 days, DIO mice, 24 h after last dose; read-out: brain concentration after chronic treatment. The method, then:
Tissue distribution after chronic administration was conducted similarly, except tissue collection was performed 24 h after the last drug administration and analyzed in the same manner as previously described.
Supplementary F igure 2. BNS808 biodistribution and pharm acokinet ics aft er chronic P O adm inist rat ion. The accumulation of BNS808 in organs/plasma was evaluated by analyzing the BNS808 levels in the plasma, brain, and liver post-chronic administration of 1 mg/kg PO for 24 days in diet-induced obese mice. Data r epr esent the mean ± SE M of 4 mice per gr oup.
(1 picture or pasted object on this page, not shown here)

Data set [4] is described as follows: Stability in simulated intestinal fluid (SIF). The class given is in vitro ADME.

In the case of `Cc1ccc(S(=O)(=O)NC2CCCOc3c2nn(-c2ccccc2Cl)c3-c2ccc(Cl)cc2)cc1` (stereo not drawn) [BNS807], the “CB1R functional profile in GTPγS assay” value on CB1R is reported as “inverse agonistic profile; also recorded: inverse agonist”.

`O=S(=O)(NC1CCCOc2c1nn(-c1ccccc1Cl)c2-c1ccc(Cl)cc1)c1ccc(Cl)cc1` (stereo not drawn) [BNS808, 4-chloro-N-[2-(2-chlorophenyl)-3-(4-chlorophenyl)-5,6,7,8-tetrahydrooxepino[3,2-c]pyrazol-8-yl]benzenesulfonamide] registered a liver concentration in data set [1] (1 mg/kg PO acute, time point not stated) of approximately 200 ng/g. Moreover, the “brain concentration, average over time points” value in data set [1] (1 mg/kg PO single acute dose, lean C57Bl/6 mice, 1, 2, 4, 8 h) was found to be 13.7 ng/g. Besides, the values for the Kp at 1 h in data set [1] (read-out: brain-to-plasma (B/P) ratio) and in data set [1] (read-out: liver/plasma (L/P) ratio) were 0.18 and 3.62, respectively. The molecule also had a concentration at 1 h in data set [2] of 13 ng/g. In addition, the concentration at 24 h in data set [3] was approximately 20 ng/g. Besides, the “amount in SIF with pancreatin” value in data set [4] (0 h) is on record as 2.972 mg; in data set [4] (1 h), 3.023 mg; in data set [4] (3 h), 3.0009 mg. The “amount in SIF, no pancreatin” value in data set [4] (0 h) is given as 3.257 mg; in data set [4] (1 h) it was 3.277 mg; in data set [4] (3 h), 3.266 mg. For the same molecule, the “Initial amount (%) in SIF with pancreatin” value in data set [4] (1 h) is reported as 102%; in data set [4] (3 h) it was 101%. Also, the entries for the “Initial amount (%) in SIF, no pancreatin” value in data set [4] (1 h) and in data set [4] (3 h) were 101% and 100%, respectively. In data set [4] (with and without pancreatin), the “Stability in SIF” value is given as “Stable”.
